According to patent US20240279221A1, “HETEROCYCLIC COMPOUNDS AND METHODS OF USE” (Schrödinger, Inc., priority 2021, published 2024):

Target: SOS1:KRAS (G12C) interaction (Homo sapiens (Human), UniProt Q07889)
Assay: SOS1-KRas(G12C) FRET Assay
Type: binding
Conditions: 0.5 nM His10-SOS1 (res. 564-1049), 2.5 nM GST-KRAS (res. 1-169, G12C); read-out: SOS-KRas(G12C) FRET IC50
Procedure: Inhibition of the SOS1:KRAS interaction was measured using purified GST-tagged KRAS (res. 1-169, G12C, purified based on Hillig, et al., Proc Natl Acad Sci USA (2019); 116(7):2551-2560) and recombinant His10-SOS1 (res. 564-1049; purified based on Hillig, et al.). The final assay was performed at 20 uL with 0.5 nM SOS1 protein and 2.5 nM KRAS protein in a buffer of PBS, 0.1% BSA, 5 mM MgCl2, 0.0025% Igepal, 100 mM KF, 5 mM DTT in a white 384 square well OptiPlate (PerkinElmer, Cat. 6007290). A 2× KRAS working solution was prepared in an assay buffer containing 5 nM GST-KRAS G12C and 2 nM anti-GST-Eu(K) (Cisbio, Cat. 61GSTKLA) and pre-incubated for 15 minutes at 25° C. Compounds were serially diluted in 100% DMSO from 2 mM (positive control, compound I-13, PCT Publ. No. WO2018/115380) or 20 mM and then diluted 1:20 in assay buffer before incubation with a solution of SOS1 protein mixed 1:5 with anti-6His-XL665 FRET donor (Cisbio, Cat. 61HISXL) for 15 minutes at 25° C. before addition of 2× KRAS working solution. The final DMSO concentration is 0.5%. Plates were incubated at RT for 2 hrs before the FRET signal was measured using Envision at emission 665 nm and 615 nm. FRET signal was converted to percentage of protein-protein interaction using the following equation:
[formula] • C: signal with compound treatment • P: signal for positive control (DMSO) • N: signal for negative control (no SOS1 added) • IC50 and Hill coefficients were obtained using Graph Pad Prism (Graph Pad software, Inc, USA) with non-linear regression analysis.

SOS1:KRAS (G12C) interaction, sequence (Q07889 564-1049, stated change not applied): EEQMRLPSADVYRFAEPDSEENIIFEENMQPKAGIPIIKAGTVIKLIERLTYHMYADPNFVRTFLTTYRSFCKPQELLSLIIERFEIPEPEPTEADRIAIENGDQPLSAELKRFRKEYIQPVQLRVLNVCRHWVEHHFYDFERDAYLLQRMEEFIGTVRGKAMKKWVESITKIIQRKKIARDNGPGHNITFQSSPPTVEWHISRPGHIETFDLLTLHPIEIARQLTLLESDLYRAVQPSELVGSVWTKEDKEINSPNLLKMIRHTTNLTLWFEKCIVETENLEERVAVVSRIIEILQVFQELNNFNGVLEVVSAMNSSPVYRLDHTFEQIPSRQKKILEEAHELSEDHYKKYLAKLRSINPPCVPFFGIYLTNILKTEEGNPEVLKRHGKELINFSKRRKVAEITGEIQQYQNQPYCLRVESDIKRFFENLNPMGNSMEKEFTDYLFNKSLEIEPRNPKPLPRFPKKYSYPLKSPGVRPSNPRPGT

IC50 [nM] | SMILES
2060 | C[C@@H](Nc1nn(C)c(=O)c2cc(=O)n(C3(C(F)F)CC3)cc12)c1cccc2cccn12 [Example 114, (R)-6-(1-(difluoromethyl)cyclopropyl)-4-((1-(indolizin-5-yl)ethyl)amino)-2-methyl-2,6-dihydropyrido[3,4-d]pyridazine-1,7-dione]
> 10000 | C[C@H](Nc1nn(C)c(=O)c2cc(=O)n(C3(C(F)F)CC3)cc12)c1cccc2ccnn12 [Example 115, (S)-6-(1-(difluoromethyl)cyclopropyl)-2-methyl-4-((1-(pyrazolo[1,5-a]pyridin-7-yl)ethyl)amino)-2,6-dihydropyrido[3,4-d]pyridazine-1,7-dione]
> 10000 | C[C@@H](Nc1nn(C)c(=O)c2cc(=O)n(C3(C(F)F)CC3)cc12)c1cccc2ccnn12 [Example 116, (R)-6-(1-(difluoromethyl)cyclopropyl)-2-methyl-4-((1-(pyrazolo[1,5-a]pyridin-7-yl)ethyl)amino)-2,6-dihydropyrido[3,4-d]pyridazine-1,7-dione]
568 | Cc1cc([C@H](C)Nc2nn(C)c(=O)c3cc(=O)n(C4CC4)cc23)cc(C(F)(F)F)c1 [Example 117, 6-cyclopropyl-2-methyl-4-[[(1S)-1-[3-methyl-5-(trifluoromethyl)phenyl]ethyl]amino]pyrido[3,4-d]pyridazine-1,7-dione]
> 10000 | Cc1cc([C@@H](C)Nc2nn(C)c(=O)c3cc(=O)n(C4CC4)cc23)cc(C(F)(F)F)c1 [Example 118, 6-cyclopropyl-2-methyl-4-[[(1R)-1-[3-methyl-5-(trifluoromethyl)phenyl]ethyl]amino]pyrido[3,4-d]pyridazine-1,7-dione]
366 | C[C@@H](Nc1nn(C)c(=O)c2cc(=O)n(C3(CO)CC3)cc12)c1cccc(C(F)F)c1F [Example 123, (R)-4-((1-(3-(difluoromethyl)-2-fluorophenyl)ethyl)amino)-6-(1-(hydroxymethyl)cyclopropyl)-2-methylpyrido[3,4-d]pyridazine-1,7(2H,6H)-dione]
886 | C[C@@H](Nc1nn(C)c(=O)c2cc(=O)n(C3(CN4CC(F)C4)CC3)cc12)c1cccc(C(F)F)c1F [Example 124, (R)-4-((1-(3-(difluoromethyl)-2-fluorophenyl)ethyl)amino)-6-(1-((3-fluoroazetidin-1-yl)methyl)cyclopropyl)-2-methylpyrido[3,4-d]pyridazine-1,7(2H,6H)-dione]
54.3 | C[C@@H](Nc1nn(C)c(=O)c2cc(=O)n(C3(CF)CC3)cc12)c1cccc(C(F)F)c1F [Example 125, (R)-4-((1-(3-(difluoromethyl)-2-fluorophenyl)ethyl)amino)-6-(1-(fluoromethyl)cyclopropyl)-2-methylpyrido[3,4-d]pyridazine-1,7(2H,6H)-dione]
67.8 | C[C@@H](Nc1nn(C)c(=O)c2cc(=O)n(C3(C(C)(F)F)CC3)cc12)c1cccc(C(F)F)c1F [Example 126, (R)-6-(1-(1,1-difluoroethyl)cyclopropyl)-4-((1-(3-(difluoromethyl)-2-fluorophenyl)ethyl)amino)-2-methyl-2,6-dihydropyrido[3,4-d]pyridazine-1,7-dione]
90 | Cc1c([C@@H](C)Nc2nn(C)c(=O)c3cc(=O)n(C45COC(C)(C4)C5)cc23)cccc1C(F)(F)F [Example 127, (R)-2-methyl-4-((1-(2-methyl-3-(trifluoromethyl)phenyl)ethyl)amino)-6-(1-methyl-2-oxabicyclo[2.1.1]hexan-4-yl)-2,6-dihydropyrido[3,4-d]pyridazine-1,7-dione]
282 | C[C@@H](Nc1nn(C)c(=O)c2cc(=O)n(C3(C)CC(F)(F)C3)cc12)c1cccc(C(F)F)c1F [Example 134, (R)-6-(3,3-difluoro-1-methylcyclobutyl)-4-((1-(3-(difluoromethyl)-2-fluorophenyl)ethyl)amino)-2-methyl-2,6-dihydropyrido[3,4-d]pyridazine-1,7-dione]
